Test results taken from ChEMBL document CHEMBL5303573, “Mapping human microbiome drug metabolism by gut bacteria and their genes” (Nature, 2019).

Tests used:
[1] = The drug is tested on Bacteroides pectinophilus strain: ATCC43243 for biotransformation. The drug concentrations were measured before and after a 12-h incubation by liquid-chromatography-coupled mass spectrometry (LC–MS); settings: 2 µM
[2] = The drug is tested on Clostridium sporogenes strain: ATCC15579 for biotransformation. The drug concentrations were measured before and after a 12-h incubation by liquid-chromatography-coupled mass spectrometry (LC–MS); settings: 2 µM
[3] = The drug is tested on Collinsella intestinalis strain: DSM13280 for biotransformation. The drug concentrations were measured before and after a 12-h incubation by liquid-chromatography-coupled mass spectrometry (LC–MS); settings: 2 µM
[4] = The drug is tested on Eubacterium ventriosum strain: ATCC27560 for biotransformation. The drug concentrations were measured before and after a 12-h incubation by liquid-chromatography-coupled mass spectrometry (LC–MS); assay type: ADME; set-up: dose 2 uM, timepoint 0 vs 12 hours; settings: 2 µM
[5] = segatella copri, 12 h, 2 µM
Description: The drug is tested on Prevotella copri strain: DSM18205 for biotransformation. The drug concentrations were measured before and after a 12-h incubation by liquid-chromatography-coupled mass spectrometry (LC–MS)

[6] = The drug is tested on Blautia luti strain: DSM14534 for biotransformation. The drug concentrations were measured before and after a 12-h incubation by liquid-chromatography-coupled mass spectrometry (LC–MS); assay type: ADME; set-up: dose 2 uM, timepoint 0 vs 12 hours; settings: 2 µM
[7] = The drug is tested on Providencia stuartii strain: ATCC25827 for biotransformation. The drug concentrations were measured before and after a 12-h incubation by liquid-chromatography-coupled mass spectrometry (LC–MS); settings: 2 µM
[8] = The drug is tested on Coprococcus comes strain: ATCC27758 for biotransformation. The drug concentrations were measured before and after a 12-h incubation by liquid-chromatography-coupled mass spectrometry (LC–MS); assay type: ADME; set-up: dose 2 uM, timepoint 0 vs 12 hours; settings: 2 µM
[9] = The drug is tested on Blautia hansenii strain: DSM20583 for biotransformation. The drug concentrations were measured before and after a 12-h incubation by liquid-chromatography-coupled mass spectrometry (LC–MS); settings: 2 µM
[10] = enterocloster bolteae, 12 h, 2 µM
Description: The drug is tested on Clostridium bolteae strain: ATCCBAA-613 for biotransformation. The drug concentrations were measured before and after a 12-h incubation by liquid-chromatography-coupled mass spectrometry (LC–MS)

[11] = The drug is tested on Bacteroides xylanisolvens strain: DSM18836 for biotransformation. The drug concentrations were measured before and after a 12-h incubation by liquid-chromatography-coupled mass spectrometry (LC–MS); settings: 2 µM
[12] = The drug is tested on Bacteroides finegoldii strain: DSM17565 for biotransformation. The drug concentrations were measured before and after a 12-h incubation by liquid-chromatography-coupled mass spectrometry (LC–MS); settings: 2 µM
[13] = bacteroides thetaiotaomicron, 12 h, 2 µM
Description: The drug is tested on Bacteroides thetaiotaomicron strain: 3731 for biotransformation. The drug concentrations were measured before and after a 12-h incubation by liquid-chromatography-coupled mass spectrometry (LC–MS)

[14] = The drug is tested on Bacteroides fragilis strain: ATCC43859 for biotransformation. The drug concentrations were measured before and after a 12-h incubation by liquid-chromatography-coupled mass spectrometry (LC–MS); settings: 2 µM
[15] = The drug is tested on Clostridium ramosum strain: DSM1402 for biotransformation. The drug concentrations were measured before and after a 12-h incubation by liquid-chromatography-coupled mass spectrometry (LC–MS); settings: thomasclavelia ramosa, 2 µM
[16] = The drug is tested on Subdoligranulum variabile strain: DSM15176 for biotransformation. The drug concentrations were measured before and after a 12-h incubation by liquid-chromatography-coupled mass spectrometry (LC–MS); settings: 2 µM
[17] = akkermansia muciniphila, 12 h, 2 µM
Description: The drug is tested on Akkermansia muciniphila strain: ATCC BAA-835 for biotransformation. The drug concentrations were measured before and after a 12-h incubation by liquid-chromatography-coupled mass spectrometry (LC–MS)

[18] = bacteroides fragilis, 12 h, 2 µM
Description: The drug is tested on Bacteroides fragilis strain: 3397 (T10) for biotransformation. The drug concentrations were measured before and after a 12-h incubation by liquid-chromatography-coupled mass spectrometry (LC–MS)

[19] = bacteroides thetaiotaomicron, 12 h, 2 µM; remark: listed apart in the source
Description: The drug is tested on Bacteroides thetaiotaomicron strain: 7330 for biotransformation. The drug concentrations were measured before and after a 12-h incubation by liquid-chromatography-coupled mass spectrometry (LC–MS)

[20] = The drug is tested on Alistipes indistinctus strain: DSM22520 for biotransformation. The drug concentrations were measured before and after a 12-h incubation by liquid-chromatography-coupled mass spectrometry (LC–MS); settings: 2 µM

SMILES	Bacterial Biotransformation [1]	Bacterial Biotransformation [2]	Bacterial Biotransformation [3]	Bacterial Biotransformation [4]	Bacterial Biotransformation [5]	Bacterial Biotransformation [6]	Bacterial Biotransformation [7]	Bacterial Biotransformation [8]	Bacterial Biotransformation [9]	Bacterial Biotransformation [10]	Bacterial Biotransformation [11]	Bacterial Biotransformation [12]	Bacterial Biotransformation [13]	Bacterial Biotransformation [14]	Bacterial Biotransformation [15]	Bacterial Biotransformation [16]	Bacterial Biotransformation [17]	Bacterial Biotransformation [18]	Bacterial Biotransformation [19]	Bacterial Biotransformation [20]
COc1cc2nc(N(C)CCCNC(=O)C3CCCO3)nc(N)c2cc1OC (centres undefined) [ALFUZOSIN]	Compound NOT metabolized	Compound NOT metabolized	Compound NOT metabolized	Compound NOT metabolized	Compound NOT metabolized	Compound NOT metabolized	Compound NOT metabolized	Compound NOT metabolized	Compound NOT metabolized	Compound NOT metabolized	Compound NOT metabolized	Compound NOT metabolized	Compound NOT metabolized	Compound NOT metabolized	Compound NOT metabolized	Compound NOT metabolized	Compound NOT metabolized	–	–	–
CC[C@@]1(O)C(=O)OCc2c1cc1n(c2=O)Cc2cc3c(CN(C)C)c(O)ccc3nc2-1 [TOPOTECAN]	–	Compound NOT metabolized	Compound NOT metabolized	Compound NOT metabolized	Compound NOT metabolized	Compound NOT metabolized	–	Compound NOT metabolized	Compound NOT metabolized	Compound NOT metabolized	Compound NOT metabolized	Compound NOT metabolized	Compound NOT metabolized	Compound NOT metabolized	Compound NOT metabolized	Compound NOT metabolized	Compound NOT metabolized	Compound NOT metabolized	Compound NOT metabolized	–
O=C1CC2(CCCC2)CC(=O)N1CCCCN1CCN(c2ncccn2)CC1 [BUSPIRONE]	Compound NOT metabolized	Compound NOT metabolized	Compound NOT metabolized	Compound NOT metabolized	Compound NOT metabolized	Compound NOT metabolized	Compound NOT metabolized	Compound NOT metabolized	Compound NOT metabolized	Compound NOT metabolized	Compound NOT metabolized	Compound NOT metabolized	Compound NOT metabolized	Compound NOT metabolized	Compound NOT metabolized	Compound NOT metabolized	Compound NOT metabolized	Compound NOT metabolized	Compound NOT metabolized	–
OCCOCCN1CCN(C2=Nc3ccccc3Sc3ccccc32)CC1 [QUETIAPINE]	Compound NOT metabolized	–	Compound NOT metabolized	Compound NOT metabolized	Compound NOT metabolized	Compound NOT metabolized	–	Compound NOT metabolized	Compound NOT metabolized	Compound NOT metabolized	–	Compound NOT metabolized	–	Compound NOT metabolized	–	Compound NOT metabolized	Compound NOT metabolized	Compound NOT metabolized	Compound NOT metabolized	Compound NOT metabolized
COc1ccccc1OCC(O)CN1CCN(CC(=O)Nc2c(C)cccc2C)CC1 (centres undefined) [RANOLAZINE]	Compound NOT metabolized	–	Compound NOT metabolized	Compound NOT metabolized	Compound NOT metabolized	Compound NOT metabolized	Compound NOT metabolized	Compound NOT metabolized	Compound NOT metabolized	Compound NOT metabolized	Compound NOT metabolized	Compound NOT metabolized	Compound NOT metabolized	Compound NOT metabolized	–	Compound NOT metabolized	–	Compound NOT metabolized	Compound NOT metabolized	Compound NOT metabolized
COC1=CC(=O)C[C@@H](C)[C@]12Oc1c(Cl)c(OC)cc(OC)c1C2=O [GRISEOFULVIN]	Compound NOT metabolized	–	Compound NOT metabolized	Compound NOT metabolized	Compound metabolized	Compound NOT metabolized	–	Compound NOT metabolized	Compound metabolized	Compound NOT metabolized	Compound metabolized	Compound NOT metabolized	Compound NOT metabolized	Compound metabolized	–	Compound NOT metabolized	Compound metabolized	Compound metabolized	–	Compound NOT metabolized
COc1cc2nc(N3CCN(C(=O)C4CCCO4)CC3)nc(N)c2cc1OC (centres undefined) [TERAZOSIN]	Compound NOT metabolized	Compound NOT metabolized	Compound NOT metabolized	Compound NOT metabolized	Compound NOT metabolized	Compound NOT metabolized	Compound NOT metabolized	Compound NOT metabolized	Compound NOT metabolized	Compound NOT metabolized	Compound NOT metabolized	Compound NOT metabolized	Compound NOT metabolized	Compound NOT metabolized	–	Compound NOT metabolized	Compound NOT metabolized	Compound NOT metabolized	Compound NOT metabolized	–
